From US9120791B2, “Indolizine compounds, a process for their preparation and pharmaceutical compositions containing them” (LES LABORATOIRES SERVIER, priority 2012, dated 2015)
Where a name gives a salt, the structure may show the parent alone.

Assays:
Bcl-2 protein = Bcl-2 protein (Homo sapiens (Human), UniProt P10415); test: Inhibition of Bcl-2 by the fluorescence polarisation technique; type: binding; conditions: fluorescence polarisation test; concentration that inhibits fluorescence polarisation by 50%; read-out: IC50 (nM) Bcl-2 FP
Bcl-2 protein, sequence (P10415 whole entry): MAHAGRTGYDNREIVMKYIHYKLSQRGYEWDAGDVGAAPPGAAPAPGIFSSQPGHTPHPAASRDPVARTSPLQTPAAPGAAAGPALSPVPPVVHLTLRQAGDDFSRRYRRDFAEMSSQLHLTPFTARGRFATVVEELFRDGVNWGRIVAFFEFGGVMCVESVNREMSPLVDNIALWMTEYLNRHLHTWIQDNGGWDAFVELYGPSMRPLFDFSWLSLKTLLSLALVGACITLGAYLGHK
Method: The fluorescence polarisation tests were carried out on microplates (384 wells). […] After incubation for 2 hours, the fluorescence polarisation is measured.

[1] = tested on: RS4;11 leukaemia tumour line; test: In vitro cytotoxicity (Microculture Tetrazolium Assay, 48 hours); type: cell-based; conditions: Homo sapiens, RS4;11 cells, 48 hours exposure, MTT, concentration that inhibits cell viability by 50%, read-out: IC50 (nM) MTT RS4
Method: The cytotoxicity studies were carried out on the RS4;11 leukaemia tumour line.
The cells are distributed onto microplates and exposed to the test compounds for 48 hours.

Row | SMILES | IC50 (Bcl-2 protein) | IC50 [1]
1 | O=C(c1cc(-c2cc(F)ccc2C(=O)N2Cc3ccccc3C[C@H]2CN2CCOCC2)n2c1CC(O)CC2)N(c1ccccc1)c1ccc(O)cc1 (stereo partly drawn) [Example 100, 3-(5-Fluoro-2-{[(3S)-3-(morpholin-4-ylmethyl)-3,4-dihydroisoquinolin-2(1H)-yl]carbonyl}phenyl)-7-hydroxy-N-(4-hydroxyphenyl)-N-phenyl-5,6,7,8-tetrahydroindolizine-1-carboxamide hydrochloride] | 22 nM | 856 nM
2 | CN1CCN(C[C@@H]2Cc3ccccc3CN2C(=O)c2cc3c(cc2-c2cc(C(=O)N(c4ccc(O)cc4)c4ccc5c(ccn5C)c4)c4n2CCC4)OCO3)CC1 [Example 76, N-(4-Hydroxyphenyl)-N-(1-methyl-1H-indol-5-yl)-5-{6-[((3S)-3-[(4-methyl-1-piperazinyl)methyl]-3,4-dihydro-2(1H)-isoquinolinyl)carbonyl]-1,3-benzodioxol-5-yl}-2,3-dihydro-1H-pyrrolizine-7-carboxamide bis(hydrochloride)] | 17 nM | 49 nM
3 | CN1CCN(C[C@@H]2Cc3ccccc3CN2C(=O)c2cc3c(cc2-c2cc(C(=O)N(c4ccc(O)cc4)c4ccc5c(ccn5C)c4)c4ccccn24)OCO3)CC1 [Example 57, N-(4-Hydroxyphenyl)-N-(1-methyl-1H-indol-5-yl)-3-{6-[((3S)-3-[(4-methyl-1-piperazinyl)methyl]-3,4-dihydro-2(1H)-isoquinolinyl)carbonyl]-1,3-benzodioxol-5-yl}-1-indolizine carboxamide bis(hydrochloride)] | 12 nM | 8.62 nM
4 | Cl.[2H]C1([2H])Oc2cc(C(=O)N3Cc4ccccc4C[C@H]3CN3CCOCC3)c(-c3cc(C(=O)N(c4ccc(O)cc4)c4ccc5c(cnn5C)c4)c4n3CCCC4)cc2O1 [Example 50, N-(4-Hydroxyphenyl)-N-(1-methyl-1H-indazol-5-yl)-3-{2,2-dideuterio-6-[((3S)-3-(4-morpholinylmethyl)-3,4-dihydro-2(1H)-isoquinolinyl)carbonyl]-1,3-benzodioxol-5-yl}-5,6,7,8-tetrahydro-1-indolizine carboxamide hydrochloride] | 13 nM | 4.01 nM
5 | COc1ccc(C(=O)N2Cc3ccccc3C[C@H]2CN2CCOCC2)c(-c2cc(C(=O)N(c3ccc(O)cc3)c3ccc4c(ccn4C)c3)c3n2CCCC3)c1 [Example 33, N-(4-Hydroxyphenyl)-3-{5-methoxy-2-[((3S)-3-(4-morpholinylmethyl)-3,4-dihydro-2(1H)-isoquinolinyl)carbonyl]phenyl}-N-(1-methyl-1H-indol-5-yl)-5,6,7,8-tetrahydro-1-indolizine carboxamide hydrochloride] | 23 nM | 12.2 nM
6 | CN1CCN(C[C@@H]2Cc3ccccc3CN2C(=O)c2ccc(Cl)cc2-c2cc(C(=O)N(c3ccc(O)cc3)c3ccc4c(ccn4C)c3)c3n2CCCC3)CC1=O [Example 107, 3-(5-Chloro-2-{[(3S)-3-[(4-methyl-3-oxopiperazin-1-yl)methyl]-3,4-dihydroisoquinolin-2(1H)-yl]carbonyl}phenyl)-N-(4-hydroxyphenyl)-N-(1-methyl-1H-indol-5-yl)-5,6,7,8-tetrahydroindolizine-1-carboxamide hydrochloride] | 7 nM | 8.29 nM
7 | CCN1CCc2cc(N(C(=O)c3cc(-c4cc5c(cc4C(=O)N4Cc6ccccc6C[C@H]4CN4CCOCC4)OCO5)n4ccccc34)c3ccc(O)cc3)ccc21 [Example 63, N-(1-Ethyl-2,3-dihydro-1H-indol-5-yl)-N-(4-hydroxyphenyl)-3-{6-[((3S)-3-(4-morpholinylmethyl)-3,4-dihydro-2(1H)-isoquinolinyl)carbonyl]-1,3-benzodioxol-5-yl}-1-indolizine carboxamide hydrochloride] | 21 nM | 18.8 nM
8 | CN1CCOc2cc(N(C(=O)c3cc(-c4cc5c(cc4C(=O)N4Cc6ccccc6C[C@H]4CN4CCOCC4)OCCO5)n4c3CCCC4)c3ccc(O)cc3)ccc21 [Example 41, N-(4-Hydroxyphenyl)-N-(4-methyl-3,4-dihydro-2H-1,4-benzoxazin-7-yl)-3-{7-[((3S)-3-(4-morpholinylmethyl)-3,4-dihydro-2(1H)-isoquinolinyl)carbonyl]-2,3-dihydro-1,4-benzodioxin-6-yl}-5,6,7,8-tetrahydro-1-indolizine carboxamide hydrochloride] | 26 nM | 44 nM
9 | O=C(c1cc(-c2cc(Cl)ccc2C(=O)N2Cc3ccccc3C[C@H]2CN2CCOCC2)n2c1CCCC2)N(c1ccc(O)cc1)c1cc(F)cc(F)c1 [Example 125, 3-(5-Chloro-2-{[(3S)-3-(morpholin-4-ylmethyl)-3,4-dihydroisoquinolin-2(1H)-yl]carbonyl}phenyl)-N-(3,5-difluorophenyl)-N-(4-hydroxyphenyl)-5,6,7,8-tetrahydroindolizine-1-carboxamide hydrochloride] | 38 nM | 81.8 nM
10 | COc1ccc(C(=O)N2Cc3ccccc3C[C@H]2CN2CCOCC2)c(-c2cc(C(=O)N(c3ccc(O)cc3)c3ccc(C)c(F)c3)c3n2CCCC3)c1 [Example 114, N-(3-Fluoro-4-methylphenyl)-N-(4-hydroxyphenyl)-3-(5-methoxy-2-{[(3S)-3-(morpholin-4-ylmethyl)-3,4-dihydroisoquinolin-2(1H)-yl]carbonyl}phenyl)-5,6,7,8-tetrahydroindolizine-1-carboxamide hydrochloride] | 9 nM | 43.1 nM
11 | COc1cccc(N(C(=O)c2cc(-c3cc(Cl)ccc3C(=O)N3Cc4ccccc4C[C@H]3CN3CCOCC3)n3c2CCCC3)c2ccc(O)cc2)c1 [Example 124, 3-(5-Chloro-2-{[(3S)-3-(morpholin-4-ylmethyl)-3,4-dihydroisoquinolin-2(1H)-yl]carbonyl}phenyl)-N-(4-hydroxyphenyl)-N-(3-methoxyphenyl)-5,6,7,8-tetrahydroindolizine-1-carboxamide hydrochloride] | 28 nM | 101 nM
12 | CN(C)C[C@@H]1Cc2ccccc2CN1C(=O)c1ccc(Cl)cc1-c1cc(C(=O)N(c2ccc(O)cc2)c2ccc3c(ccn3C)c2)c2n1CCCC2 [Example 52, 3-{5-Chloro-2-[((3S)-3-[(dimethylamino)methyl]-3,4-dihydro-2(1H)-isoquinolinyl)carbonyl]phenyl}-N-(4-hydroxyphenyl)-N-(1-methyl-1H-indol-5-yl)-5,6,7,8-tetrahydro-1-indolizine carboxamide hydrochloride] | 16 nM | 19.8 nM

Continued, in another order:

Row | IC50 (Bcl-2 protein) | SMILES | IC50 [1]
13 | 180 nM | CSc1ccc(N(C(=O)c2cc(-c3cc(Cl)ccc3C(=O)N3Cc4ccccc4C[C@H]3CN3CCOCC3)n3c2CCCC3)c2ccc(O)cc2)cc1C(F)(F)F [Example 54, 3-{5-Chloro-2-[((3S)-3-(4-morpholinylmethyl)-3,4-dihydro-2(1H)-isoquinolinyl)carbonyl]phenyl}-N-(4-hydroxyphenyl)-N-[4-(methylsulphanyl)-3-(trifluoromethyl)phenyl]-5,6,7,8-tetrahydro-1-indolizine carboxamide hydrochloride] | 106 nM
14 | 19 nM | CCn1ccc2cc(N(C(=O)c3cc(-c4cc5c(cc4C(=O)N4Cc6ccccc6C[C@H]4CN4CCOCC4)OCO5)n4ccccc34)c3ccc(O)cc3)ccc21 [Example 60, N-(1-Ethyl-1H-indol-5-yl)-N-(4-hydroxyphenyl)-3-{6-[((3S)-3-(4-morpholinylmethyl)-3,4-dihydro-2(1H)-isoquinolinyl)carbonyl]-1,3-benzodioxol-5-yl}-1-indolizine carboxamide hydrochloride] | 11.7 nM
15 | 15 nM | CN1CCCc2cc(N(C(=O)c3cc(-c4cc5c(cc4C(=O)N4Cc6ccccc6C[C@H]4CN4CCOCC4)OCCO5)n4c3CCCC4)c3ccc(O)cc3)ccc21 [Example 40, N-(4-Hydroxyphenyl)-N-(1-methyl-1,2,3,4-tetrahydro-6-quinolinyl)-3-{7-[((3S)-3-(4-morpholinylmethyl)-3,4-dihydro-2(1H)-isoquinolinyl)carbonyl]-2,3-dihydro-1,4-benzodioxin-6-yl}-5,6,7,8-tetrahydro-1-indolizine carboxamide hydrochloride] | 32.2 nM
16 | 23 nM | CN1CCN(C[C@@H]2Cc3ccccc3CN2C(=O)c2ccc(Cl)cc2-c2cc(C(=O)N(c3ccc(O)cc3)c3ccc4c(ccn4C)c3)c3n2CCC3)CC1 [Example 77, 5-{5-Chloro-2-[((3S)-3-[(4-methyl-1-piperazinyl)methyl]-3,4-dihydro-2(1H)-isoquinolinyl)carbonyl]phenyl}-N-(4-hydroxyphenyl)-N-(1-methyl-1H-indol-5-yl)-2,3-dihydro-1H-pyrrolizine-7-carboxamide bis(hydrochloride)] | 70.4 nM
17 | 26 nM | O=C(c1cc(-c2cc3c(cc2C(=O)N2Cc4ccccc4C[C@H]2CN2CCN(CC(F)(F)F)CC2)OCO3)n2c1CCCC2)N(c1ccccc1)c1ccc(O)cc1 [Example 127, N-(4-Hydroxyphenyl)-N-phenyl-3-(6-{[(3S)-3-{[4-(2,2,2-trifluoroethyl)-piperazin-1-yl]methyl}-3,4-dihydroisoquinolin-2(1H)-yl]carbonyl}-1,3-benzodioxol-5-yl)-5,6,7,8-tetrahydroindolizine-1-carboxamide hydrochloride] | 129 nM
18 | 35 nM | O=C(c1cc(-c2cc(Cl)ccc2C(=O)N2Cc3ccccc3C[C@H]2CN2CCOCC2)n2c1CCCC2)N(c1ccc(O)cc1)c1ccc2c(c1)CCC2 [Example 29, 3-{5-Chloro-2-[((3S)-3-(4-morpholinylmethyl)-3,4-dihydro-2(1H)-isoquinolinyl)carbonyl]phenyl}-N-(2,3-dihydro-1H-inden-5-yl)-N-(4-hydroxyphenyl)-5,6,7,8-tetrahydro-1-indolizine carboxamide hydrochloride] | 85.5 nM
